US10285989B2, “Pyrimidinone amide compounds as PDE2 inhibitors” (Merck Sharp & Dohme Corp., priority 2015, dated 2019)
Read-outs that look alike come from different tables or passages of the source.

Experiments:
[1] = molecular target: P-glycoprotein (P-gp, rat Mdr1a) (Rattus norvegicus, UniProt Q6PSM0); experiment: P-gp transport, experimental BA/AB ratio, rat LLC-Mdr1a; format: in vitro ADME; conditions: LLC-PK1; rat LLC-Mdrla; 1 μM substrate concentration
From the text: (§1) See Doan et al. “Passive permeability and P-glycoprotein-mediated efflux differentiate central nervous system (CNS) and non-CNS marketed drugs”, J. Pharm. Exper. […] Desirable human BA/AB ratio is less than 2.0. […] See, for example, Desai, et al. Integration of in Silico and in Vitro Tools for Scaffold Optimization during Drug Discovery: Predicting P-glycoprotein Efflux” Mol. Pharmac.

Rhesus PDE2A3 = Rhesus PDE2A3 (Macaca mulatta, UniProt B3VTJ2); experiment: PDE2 fluorescence polarization (IMAP FP) inhibition assay, rhesus PDE2A3; format: biochemical, rhesus macaque
Chain of Rhesus PDE2A3 (B3VTJ2 1-941): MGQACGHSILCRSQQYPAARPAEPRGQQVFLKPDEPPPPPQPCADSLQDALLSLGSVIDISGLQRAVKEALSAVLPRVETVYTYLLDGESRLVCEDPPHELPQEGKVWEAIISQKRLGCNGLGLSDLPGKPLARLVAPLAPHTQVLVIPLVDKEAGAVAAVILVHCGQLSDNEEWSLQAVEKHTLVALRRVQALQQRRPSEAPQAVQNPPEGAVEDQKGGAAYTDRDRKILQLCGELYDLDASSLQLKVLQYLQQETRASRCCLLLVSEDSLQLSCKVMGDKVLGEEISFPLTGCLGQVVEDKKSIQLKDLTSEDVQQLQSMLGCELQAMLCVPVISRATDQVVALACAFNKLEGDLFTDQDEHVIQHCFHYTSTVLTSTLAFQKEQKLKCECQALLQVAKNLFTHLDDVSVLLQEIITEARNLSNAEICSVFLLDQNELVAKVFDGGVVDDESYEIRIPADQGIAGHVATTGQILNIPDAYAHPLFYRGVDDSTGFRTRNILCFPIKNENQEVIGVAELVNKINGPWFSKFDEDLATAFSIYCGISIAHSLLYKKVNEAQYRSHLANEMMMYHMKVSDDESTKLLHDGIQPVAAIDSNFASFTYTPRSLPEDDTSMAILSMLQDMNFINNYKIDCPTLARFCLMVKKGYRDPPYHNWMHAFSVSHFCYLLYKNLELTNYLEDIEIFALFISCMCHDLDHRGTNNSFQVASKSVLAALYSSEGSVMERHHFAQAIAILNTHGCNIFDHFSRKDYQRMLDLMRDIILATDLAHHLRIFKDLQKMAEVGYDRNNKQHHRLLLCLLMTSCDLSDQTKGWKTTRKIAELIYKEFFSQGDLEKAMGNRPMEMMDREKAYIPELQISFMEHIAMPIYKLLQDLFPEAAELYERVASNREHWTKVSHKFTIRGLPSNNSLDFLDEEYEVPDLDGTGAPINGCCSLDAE

P-glycoprotein (P-gp) = P-glycoprotein (P-gp) (Homo sapiens (Human), UniProt P08183); experiment: P-gp transport, experimental BA/AB ratio, human; format: in vitro ADME; conditions: LLC-PK1, 1 μM substrate concentration
Chain of P-glycoprotein (P-gp) (P08183 whole entry): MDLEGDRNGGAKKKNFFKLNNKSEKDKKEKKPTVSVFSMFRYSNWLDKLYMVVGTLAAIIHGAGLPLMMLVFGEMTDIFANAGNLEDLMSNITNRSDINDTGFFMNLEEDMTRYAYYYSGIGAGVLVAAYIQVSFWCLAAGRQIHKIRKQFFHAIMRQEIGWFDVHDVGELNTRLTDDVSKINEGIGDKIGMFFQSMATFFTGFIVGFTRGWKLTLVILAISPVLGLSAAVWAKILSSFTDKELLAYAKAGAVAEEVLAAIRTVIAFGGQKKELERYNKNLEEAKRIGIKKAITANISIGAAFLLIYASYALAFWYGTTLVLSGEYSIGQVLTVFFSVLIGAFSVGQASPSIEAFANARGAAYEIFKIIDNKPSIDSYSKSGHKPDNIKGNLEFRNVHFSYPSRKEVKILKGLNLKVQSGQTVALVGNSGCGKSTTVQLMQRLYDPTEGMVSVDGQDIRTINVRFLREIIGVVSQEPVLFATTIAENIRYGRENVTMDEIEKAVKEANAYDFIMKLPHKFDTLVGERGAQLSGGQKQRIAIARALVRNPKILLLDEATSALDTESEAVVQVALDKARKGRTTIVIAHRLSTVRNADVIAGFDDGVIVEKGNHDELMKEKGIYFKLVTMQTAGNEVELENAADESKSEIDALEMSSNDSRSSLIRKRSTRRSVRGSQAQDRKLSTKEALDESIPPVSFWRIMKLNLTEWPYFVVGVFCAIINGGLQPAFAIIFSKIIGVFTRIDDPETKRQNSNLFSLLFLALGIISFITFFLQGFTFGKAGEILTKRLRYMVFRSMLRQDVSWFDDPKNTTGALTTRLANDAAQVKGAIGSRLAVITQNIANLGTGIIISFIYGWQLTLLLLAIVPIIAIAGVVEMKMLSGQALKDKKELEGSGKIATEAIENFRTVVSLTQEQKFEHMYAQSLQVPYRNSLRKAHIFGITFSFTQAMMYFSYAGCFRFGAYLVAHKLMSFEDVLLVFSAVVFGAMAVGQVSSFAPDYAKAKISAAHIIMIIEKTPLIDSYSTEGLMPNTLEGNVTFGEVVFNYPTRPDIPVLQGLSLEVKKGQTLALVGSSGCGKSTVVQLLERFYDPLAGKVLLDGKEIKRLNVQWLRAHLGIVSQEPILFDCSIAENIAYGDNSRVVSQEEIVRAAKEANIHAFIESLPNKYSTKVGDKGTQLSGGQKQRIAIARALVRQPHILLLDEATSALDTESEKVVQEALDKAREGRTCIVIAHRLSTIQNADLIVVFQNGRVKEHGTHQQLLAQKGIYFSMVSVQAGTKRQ
From the text: as §1

human PDE2A1 = human PDE2A1 (Homo sapiens (Human), UniProt O00408); experiment: PDE2 IMAP FP inhibition assay, human PDE2A1 (selectivity panel format); format: biochemical
Chain of human PDE2A1 (O00408 other isoform, or with tags, fused parts or gaps): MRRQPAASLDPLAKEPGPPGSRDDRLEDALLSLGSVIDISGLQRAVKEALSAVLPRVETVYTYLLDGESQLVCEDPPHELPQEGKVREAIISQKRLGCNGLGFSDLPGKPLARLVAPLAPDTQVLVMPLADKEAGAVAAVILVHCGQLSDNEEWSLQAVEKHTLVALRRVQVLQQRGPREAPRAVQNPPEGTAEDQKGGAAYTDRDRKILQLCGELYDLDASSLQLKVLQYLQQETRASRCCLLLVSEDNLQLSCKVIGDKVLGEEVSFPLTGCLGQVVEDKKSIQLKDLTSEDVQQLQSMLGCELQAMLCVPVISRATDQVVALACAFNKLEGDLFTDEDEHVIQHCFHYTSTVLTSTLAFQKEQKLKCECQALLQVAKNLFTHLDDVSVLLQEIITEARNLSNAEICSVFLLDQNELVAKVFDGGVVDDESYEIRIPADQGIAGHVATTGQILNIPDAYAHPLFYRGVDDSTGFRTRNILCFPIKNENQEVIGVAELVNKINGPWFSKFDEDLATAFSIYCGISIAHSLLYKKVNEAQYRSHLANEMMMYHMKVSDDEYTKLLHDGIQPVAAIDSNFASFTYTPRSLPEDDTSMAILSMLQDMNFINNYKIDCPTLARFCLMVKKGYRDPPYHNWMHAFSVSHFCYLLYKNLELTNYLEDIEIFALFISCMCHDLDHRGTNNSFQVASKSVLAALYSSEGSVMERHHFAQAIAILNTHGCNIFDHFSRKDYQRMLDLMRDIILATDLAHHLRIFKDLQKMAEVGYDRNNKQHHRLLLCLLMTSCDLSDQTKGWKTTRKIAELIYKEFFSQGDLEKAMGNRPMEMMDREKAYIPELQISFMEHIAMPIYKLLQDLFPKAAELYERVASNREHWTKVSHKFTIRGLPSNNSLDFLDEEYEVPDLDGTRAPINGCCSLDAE
Procedure, shortened: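 IMAP fluorescence polarization assay; substrate 50 nM FAM-cAMP with 1000 nM cGMP, enzyme at ~20% conversion, in 10 mM Tris pH 7.2, 10 mM MgCl2, 1 mM DTT, 0.01% Tween-20. 60 min room temperature, stopped with IMAP binding reagent, 1 h, then parallel/perpendicular fluorescence read.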

[2] = Lab A, read-out: Rhesus PDE2 Ki (nM) - Lab A
[3] = Lab A, read-out: Human PDE2 Ki (nM) - Lab A
[4] = Lab B, read-out: Rhesus PDE2 Ki (nM) - Lab B
[5] = Lab B, read-out: Human PDE2 Ki (nM) - Lab B

Chain of P-glycoprotein (P-gp, rat Mdr1a) (Q6PSM0 1-1272): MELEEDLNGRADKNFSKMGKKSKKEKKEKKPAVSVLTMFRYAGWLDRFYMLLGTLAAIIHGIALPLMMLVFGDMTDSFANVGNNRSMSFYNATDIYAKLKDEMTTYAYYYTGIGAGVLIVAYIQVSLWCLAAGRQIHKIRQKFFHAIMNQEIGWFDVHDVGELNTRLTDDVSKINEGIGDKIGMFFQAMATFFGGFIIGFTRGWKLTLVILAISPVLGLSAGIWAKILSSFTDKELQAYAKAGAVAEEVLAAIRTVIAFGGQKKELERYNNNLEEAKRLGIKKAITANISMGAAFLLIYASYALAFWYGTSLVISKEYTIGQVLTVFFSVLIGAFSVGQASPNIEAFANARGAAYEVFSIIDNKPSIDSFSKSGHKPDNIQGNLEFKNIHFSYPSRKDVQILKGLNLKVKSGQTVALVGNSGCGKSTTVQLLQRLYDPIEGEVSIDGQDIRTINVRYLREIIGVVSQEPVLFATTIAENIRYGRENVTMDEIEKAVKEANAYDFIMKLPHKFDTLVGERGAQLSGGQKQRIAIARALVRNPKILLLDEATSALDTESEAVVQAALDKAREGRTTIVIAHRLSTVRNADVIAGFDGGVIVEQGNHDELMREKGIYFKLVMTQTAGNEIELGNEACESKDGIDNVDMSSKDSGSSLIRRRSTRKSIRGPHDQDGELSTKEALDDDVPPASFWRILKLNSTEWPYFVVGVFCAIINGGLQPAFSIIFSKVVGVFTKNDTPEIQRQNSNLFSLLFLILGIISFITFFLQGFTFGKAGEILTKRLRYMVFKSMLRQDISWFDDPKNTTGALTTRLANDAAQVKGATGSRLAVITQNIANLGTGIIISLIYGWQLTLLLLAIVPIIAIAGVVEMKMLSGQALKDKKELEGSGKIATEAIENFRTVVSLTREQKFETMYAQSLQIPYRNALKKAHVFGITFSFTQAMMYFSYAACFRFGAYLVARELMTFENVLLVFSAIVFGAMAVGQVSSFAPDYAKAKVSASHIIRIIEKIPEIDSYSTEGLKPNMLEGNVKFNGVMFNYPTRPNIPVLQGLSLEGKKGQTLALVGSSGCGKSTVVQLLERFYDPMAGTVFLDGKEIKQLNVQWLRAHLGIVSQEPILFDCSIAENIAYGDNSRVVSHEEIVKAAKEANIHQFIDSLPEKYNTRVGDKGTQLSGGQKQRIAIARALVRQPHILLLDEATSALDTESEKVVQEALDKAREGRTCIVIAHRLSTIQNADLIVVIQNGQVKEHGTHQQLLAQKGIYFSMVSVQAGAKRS

Row | efflux ratio at 1 μM [1] | Ki (Rhesus PDE2A3; [2]) | efflux ratio at 1 μM (P-glycoprotein (P-gp)) | Ki (human PDE2A1; [3]) | Ki (Rhesus PDE2A3; [4]) | Ki (human PDE2A1; [5]) | Compound
1 | 1.9 | 4 nM | 0.3 | 3.8 nM | – | – | CN(C)c1nc(C(=O)NC(C)(C)c2ccc(C(F)(F)F)c(F)c2)cc(=O)[nH]1 [Example 93, 2-(dimethylamino)-N-{1-[3-fluoro-4-(trifluoromethyl)phenyl]-1-methylethyl}-6-oxo-1,6-dihydropyrimidine-4-carboxamide]
2 | 2.6 | 1.2 nM | 0.5 | 0.9 nM | 0.8 nM | 0.96 nM | CN(C)c1nc(C(=O)NC2(c3ccc(C(F)(F)F)c(F)c3)CC2)cc(=O)[nH]1 [Example 94, 2-(dimethylamino)-N-{1-[3-fluoro-4-(trifluoromethyl)phenyl]cyclopropyl}-6-oxo-1,6-dihydropyrimidine-4-carboxamide]
3 | 4.5 | 0.39 nM | 1 | 0.18 nM | – | – | CC(C)[C@@H](NC(=O)c1cc(=O)[nH]c(N2CCCC2)n1)c1ccc(C(F)(F)F)cc1 [Example 95, N-{(1R)-2-methyl-1-[4-(trifluoromethyl)phenyl]propyl}-6-oxo-2-pyrrolidin-1-yl-1,6-dihydropyrimidine-4-carboxamide]
4 | 2.5 | 0.36 nM | 0.5 | 0.2 nM | – | – | C[C@@H](NC(=O)c1cc(=O)[nH]c(N(C)C)n1)c1ccc(SC(F)(F)F)c(F)c1 [Example 96, 2-(dimethylamino)-N-[(1R)-1-{3-fluoro-4-[(trifluoromethyl)sulfanyl]phenyl}ethyl]-6-oxo-1,6-dihydropyrimidine-4-carboxamide]
5 | 1.8 | 0.62 nM | 0.4 | 0.34 nM | – | – | CN(C)c1nc(C(=O)N[C@@H](c2ccc(SC(F)(F)F)c(F)c2)C2CC2)cc(=O)[nH]1 [Example 97, N-[(R)-cyclopropyl{3-fluoro-4-[(trifluoromethyl)sulfanyl]phenyl}methyl]-2-(dimethylamino)-6-oxo-1,6-dihydropyrimidine-4-carboxamide]
6 | 3 | 0.54 nM | 0.4 | 0.23 nM | – | – | CC[C@@H](NC(=O)c1cc(=O)[nH]c(N(C)C)n1)c1ccc(SC(F)(F)F)c(F)c1 [Example 98, 2-(dimethylamino)-N-[(1R)-1-{3-fluoro-4-[(trifluoromethyl)sulfanyl]phenyl}propyl]-6-oxo-1,6-dihydropyrimidine-4-carboxamide]
7 | 5.8 | – | 0.7 | – | 1.1 nM | 1.1 nM | O=C(N[C@@H](c1ccc(S(F)(F)(F)(F)F)cc1)C1CC1)c1cc(=O)[nH]c(N2CCCC2)n1 [Example 99, N-{(R)-cyclopropyl[4-(pentafluoro-λ^6-sulfanyl)phenyl]methyl}-6-oxo-2-pyrrolidin-1-yl-1,6-dihydropyrimidine-4-carboxamide]
8 | 2.9 | – | 0.7 | – | 0.17 nM | 0.21 nM | CN(C)c1nc(C(=O)N[C@@H](c2ccc(OC(F)(F)F)cc2)C(C)(C)C)cc(=O)[nH]1 [Example 100, 2-(dimethylamino)-N-{(1R)-2,2-dimethyl-1-[4-(trifluoromethoxy)phenyl]propyl}-6-oxo-1,6-dihydropyrimidine-4-carboxamide]
9 | 10.1 | – | 1.7 | – | 0.14 nM | 0.12 nM | CN(C)c1nc(C(=O)N[C@@H](c2ccc(OC(F)(F)F)c(F)c2)C(C)(C)C)cc(=O)[nH]1 [Example 101, 2-(dimethylamino)-N-{(1R)-1-[3-fluoro-4-(trifluoromethoxy)phenyl]-2,2-dimethylpropyl}-6-oxo-1,6-dihydropyrimidine-4-carboxamide]
10 | 5.7 | – | 1.4 | – | 0.18 nM | 0.2 nM | CN(C)c1nc(C(=O)N[C@@H](c2ccc(C(F)(F)F)c(F)c2)C(C)(C)C)cc(=O)[nH]1 [Example 102, 2-(dimethylamino)-N-{(1R)-1-[3-fluoro-4-(trifluoromethyl)phenyl]-2,2-dimethylpropyl}-6-oxo-1,6-dihydropyrimidine-4-carboxamide]
11 | 8.2 | – | 2.2 | – | 0.12 nM | 0.12 nM | CN(C)c1nc(C(=O)N[C@@H](c2ccc(SC(F)(F)F)cc2)C(C)(C)C)cc(=O)[nH]1 [Example 103, 2-(dimethylamino)-N-[(1R)-2,2-dimethyl-1-{4-[(trifluoromethyl)sulfanyl]phenyl}propyl]-6-oxo-1,6-dihydropyrimidine-4-carboxamide]
12 | 4.2 | 0.56 nM | 0.6 | – | 1.1 nM | 1.1 nM | CC[C@@H](NC(=O)c1cc(=O)[nH]c(N(C)C)n1)c1ccc(OC(F)(F)F)c(F)c1 [Example 104, 2-(dimethylamino)-N-{(1R)-1-[3-fluoro-4-(trifluoromethoxy)phenyl]propyl}-6-oxo-1,6-dihydropyrimidine-4-carboxamide]
13 | 3.7 | 1 nM | 0.5 | – | 1.8 nM | 1.6 nM | CC[C@@H](NC(=O)c1cc(=O)[nH]c(N(C)C)n1)c1ccc(OC(F)(F)F)cc1 [Example 105, 2-(dimethylamino)-6-oxo-N-{(1R)-1-[4-(trifluoromethoxy)phenyl]propyl}-1,6-dihydropyrimidine-4-carboxamide]
14 | 3.5 | 0.81 nM | 0.5 | – | 1.4 nM | 1.3 nM | CC[C@@H](NC(=O)c1cc(=O)[nH]c(N(C)C)n1)c1ccc(C(F)(F)F)c(F)c1 [Example 106, 2-(dimethylamino)-N-{(1R)-1-[3-fluoro-4-(trifluoromethyl)phenyl]propyl}-6-oxo-1,6-dihydropyrimidine-4-carboxamide]
15 | 2.2 | 0.93 nM | 0.4 | – | 2.2 nM | 1.7 nM | CN(C)c1nc(C(=O)N[C@@H](c2ccc(OC(F)(F)F)cc2)C2CC2)cc(=O)[nH]1 [Example 107, N-{(1R)-cyclopropyl[4-(trifluoromethoxy)phenyl]methyl}-2-(dimethylamino)-6-oxo-1,6-dihydropyrimidine-4-carboxamide]
16 | 1.9 | 0.66 nM | 0.4 | – | 1.3 nM | 1.8 nM | CN(C)c1nc(C(=O)N[C@@H](c2ccc(C(F)(F)F)cc2)C2CC2)cc(=O)[nH]1 [Example 108, N-{(1R)-cyclopropyl[4-(trifluoromethyl)phenyl]methyl}-2-(dimethylamino)-6-oxo-1,6-dihydropyrimidine-4-carboxamide]
17 | 2.5 | 0.91 nM | 0.5 | – | 1.4 nM | 1.9 nM | CN(C)c1nc(C(=O)N[C@@H](c2ccc(C(F)(F)F)c(F)c2)C2CC2)cc(=O)[nH]1 [Example 109, N-{(1R)-cyclopropyl[3-fluoro-4-(trifluoromethyl)phenyl]methyl}-2-(dimethylamino)-6-oxo-1,6-dihydropyrimidine-4-carboxamide]
18 | 3.5 | 0.48 nM | 0.5 | – | 0.96 nM | 1.3 nM | CN(C)c1nc(C(=O)N[C@@H](c2ccc(OC(F)(F)F)c(F)c2)C2CC2)cc(=O)[nH]1 [Example 110, N-{(1R)-cyclopropyl[3-fluoro-4-(trifluoromethoxy)phenyl]methyl}-2-(dimethylamino)-6-oxo-1,6-dihydropyrimidine-4-carboxamide]
19 | 2 | 0.41 nM | 0.3 | – | 0.8 nM | 0.9 nM | CN(C)c1nc(C(=O)N[C@@H](c2ccc(SC(F)(F)F)cc2)C2CC2)cc(=O)[nH]1 [Example 111, N-[(R)-cyclopropyl{4-[(trifluoromethyl)sulfanyl]phenyl}methyl]-2-(dimethylamino)-6-oxo-1,6-dihydropyrimidine-4-carboxamide]
20 | 4.7 | 0.27 nM | 0.7 | – | 0.44 nM | 0.55 nM | CC(C)[C@@H](NC(=O)c1cc(=O)[nH]c(N(C)C)n1)c1ccc(C(F)(F)F)c(F)c1 [Example 112, 2-(dimethylamino)-N-{(1R)-1-[3-fluoro-4-(trifluoromethyl)phenyl]-2-methylpropyl}-6-oxo-1,6-dihydropyrimidine-4-carboxamide]
21 | 3.9 | 0.36 nM | 0.4 | – | 0.65 nM | 0.63 nM | O=C(N[C@@H](c1ccc(C2CC2)cc1)C1CC1)c1cc(=O)[nH]c(N2CCCC2)n1 [Example 113, N-[(R)-cyclopropyl(4-cyclopropylphenyl)methyl]-6-oxo-2-pyrrolidine-1-yl-1,6-dihydropyrimidine-4-carboxamide]
22 | 4 | 0.94 nM | 0.5 | – | 1.5 nM | 1.5 nM | O=C(N[C@@H](c1ccc(OC(F)(F)F)cc1)C1CC1)c1cc(=O)[nH]c(N2CCCC2)n1 [Example 114, N-{(R)-cyclopropyl[4-(trifluoromethoxy)phenyl]methyl}-6-oxo-2-pyrrolidin-1-yl-1,6-dihydropyrimidine-4-carboxamide]
